Data reported in the supplement of paper PMC10307832.

Tests used:
Assay in all cases: relative viability (nuclei count vs DMSO), 5 days (fraction); higher = more cells survive
Avagacestat + Pictilisib = compound: NC(=O)[C@@H](CCC(F)(F)F)N(Cc1ccc(-c2ncon2)cc1F)S(=O)(=O)c1ccc(Cl)cc1 [Avagacestat] + CS(=O)(=O)N1CCN(Cc2cc3nc(-c4cccc5[nH]ncc45)nc(N4CCOCC4)c3s2)CC1 [Pictilisib] (partner 1 µM)
In short: (§1)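 Medians of duplicate plates are given as relative viability. That measure is the nuclei count in treated wells divided by the count in vehicle wells. Counts were taken on 4× images of lung cancer cell lines in 1536-well plates, 5 days after pin-tool dosing the day after seeding with one drug alone or a fixed anchor-drug dose plus five library-drug doses (not always all listed) in √10 steps.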

Avagacestat + Alpelisib = compound: NC(=O)[C@@H](CCC(F)(F)F)N(Cc1ccc(-c2ncon2)cc1F)S(=O)(=O)c1ccc(Cl)cc1 [Avagacestat] + Cc1nc(NC(=O)N2CCC[C@H]2C(N)=O)sc1-c1ccnc(C(C)(C)C(F)(F)F)c1 [Alpelisib] (partner 2 µM)
In short: as §1

Avagacestat + Phenformin = compound: NC(=O)[C@@H](CCC(F)(F)F)N(Cc1ccc(-c2ncon2)cc1F)S(=O)(=O)c1ccc(Cl)cc1 [Avagacestat] + N=C(N)NC(=N)NCCc1ccccc1 [Phenformin] (partner 250 µM)
In short: as §1

Avagacestat + AZD7762 = compound: NC(=O)[C@@H](CCC(F)(F)F)N(Cc1ccc(-c2ncon2)cc1F)S(=O)(=O)c1ccc(Cl)cc1 [Avagacestat] + NC(=O)Nc1cc(-c2cccc(F)c2)sc1C(=O)N[C@H]1CCCNC1 [AZD7762] (partner 0.2 µM)
In short: as §1

Cell Line	relative viability (Avagacestat + Pictilisib; first compound 0.08 µM)	relative viability (Avagacestat + Pictilisib; first compound 0.253 µM)	relative viability (Avagacestat + Pictilisib; first compound 0.8 µM)	relative viability (Avagacestat + Pictilisib; first compound 2.53 µM)	relative viability (Avagacestat + Pictilisib; first compound 8 µM)	relative viability (Avagacestat + Alpelisib; first compound 0.08 µM)	relative viability (Avagacestat + Alpelisib; first compound 0.253 µM)	relative viability (Avagacestat + Alpelisib; first compound 0.8 µM)	relative viability (Avagacestat + Alpelisib; first compound 2.53 µM)	relative viability (Avagacestat + Alpelisib; first compound 8 µM)	relative viability (Avagacestat + Phenformin; first compound 0.08 µM)	relative viability (Avagacestat + Phenformin; first compound 0.253 µM)	relative viability (Avagacestat + Phenformin; first compound 0.8 µM)	relative viability (Avagacestat + Phenformin; first compound 2.53 µM)	relative viability (Avagacestat + Phenformin; first compound 8 µM)	relative viability (Avagacestat + AZD7762; first compound 0.08 µM)	relative viability (Avagacestat + AZD7762; first compound 0.253 µM)	relative viability (Avagacestat + AZD7762; first compound 0.8 µM)	relative viability (Avagacestat + AZD7762; first compound 2.53 µM)	relative viability (Avagacestat + AZD7762; first compound 8 µM)
NCI-H1755	0.487	0.445	0.445	0.428	0.367	1.24	1.1	1.05	0.939	0.777	0.714	0.652	0.655	0.623	0.577	0.425	0.672	0.4	0.38	0.473
NCI-H1792	0.252	0.315	0.264	0.24	0.21	0.871	0.618	0.774	0.541	0.562	0.474	0.304	0.391	0.19	0.304	0.726	0.942	0.706	0.65	0.345
NCI-H1793	0.381	0.325	0.326	0.413	0.27	0.967	0.777	0.822	0.769	0.672	0.411	0.291	0.337	0.284	0.319	0.619	0.474	0.373	0.346	0.228
NCI-H1915	0.962	1.05	0.949	1	0.93	1.03	1.12	1.04	1.03	1.02	0.396	0.396	0.368	0.412	0.357	0.694	0.72	0.74	0.806	0.678
NCI-H1944	0.349	0.374	0.357	0.32	0.33	0.874	0.857	0.844	0.667	0.758	0.231	0.236	0.226	0.18	0.204	0.455	0.603	0.571	0.454	0.719
NCI-H1975	0.338	0.289	0.325	0.258	0.298	0.686	0.62	0.719	0.585	0.665	0.48	0.422	0.42	0.398	0.42	0.718	0.712	0.853	0.649	0.642
NCI-H1993	0.675	0.664	0.856	0.817	0.696	0.756	0.691	0.693	0.752	0.727	0.548	0.531	0.473	0.451	0.59	0.956	0.61	0.741	0.731	0.6
NCI-H2085	0.543	0.461	0.518	0.501	0.46	1.15	1.07	1.08	1	1.05	0.85	0.756	0.726	0.862	0.729	1.07	1.13	1.09	1.08	0.794
NCI-H2087	0.905	1.04	1.27	0.896	0.955	1.12	1.26	1.28	1.18	1.03	0.535	0.561	0.548	0.467	0.441	1.41	1.65	1.31	1.24	1.18
NCI-H2126	0.521	0.461	0.487	0.477	0.463	0.737	0.743	0.747	0.734	0.68	0.509	0.516	0.569	0.561	0.511	1.02	0.979	1.01	0.912	1.02
NCI-H2170	0.329	0.309	0.295	0.278	0.326	1.02	0.843	0.883	0.751	0.721	0.418	0.411	0.377	0.406	0.382	0.968	1.14	0.928	0.793	0.877
NCI-H2347	0.467	0.688	0.849	0.387	0.624	1.15	1.08	1.12	0.957	1.02	0.363	0.537	0.602	0.448	0.357	0.707	0.783	0.743	0.696	0.587
NCI-H2405	0.432	0.465	0.473	0.329	0.377	0.717	0.742	0.735	0.583	0.625	0.393	0.45	0.44	0.381	0.408	0.895	0.839	0.73	0.701	0.754
NCI-H3122	0.723	0.751	0.748	0.715	0.607	0.903	0.966	0.802	0.813	0.739	0.405	0.391	0.428		0.405	1.09	1.11	0.997	0.908	0.964
PC-3 [JPC-3]	0.806	0.903	0.794	0.772	0.72	1.04	1.18	1.12	1.12	1.03	0.461	0.443	0.487	0.472	0.521	0.983	0.972	1.19	0.842	0.775
PC-14	1.06	0.627	0.673	0.544	0.539	0.9	1.05	0.975	1.06	0.587	0.768	0.728	0.86		0.628	0.53	0.568	0.581	0.39	0.392
RERF-LC-KJ	0.526	0.599	0.549	0.464	0.617	0.813	0.823	0.831	0.831	0.703	0.435	0.495	0.412	0.431	0.367	1.02	1.14	1.24	0.929	0.751
